Series [1] has as its system persistent clinical mastitis. As to the kind of experiment: Treatment of persistent clinical mastitis (Test Example 3). The format is in vivo, cows. The following applies: 60 mL intramuscular injection once a day, after 3 administrations. The protocol:
Pulsatilla Saponin B4 injection prepared by the preparation method of Example 3 at a concentration of 50 mg/mL;
The test selected 8 existing cows suffering from clinical mastitis in the dairy farm of Shijiazhuang Tianquan Dairy Cows Co., Ltd. These 8 cows have been treated for about a month but have not been cured (2 of them were close to dry, i.e., almost no milk was produced). These 8 cows have been treated by farm veterinarians, the treatment drugs and methods include udder infusing Cefquinome Sulfate Intramammary Infusion, intravenous injecting cephalosporins injection, and gavage with Gongying San ( ? ), etc.
To study the effect of Pulsatilla Saponin B4 injection on persistent clinical mastitis and the effect of Pulsatilla Saponin B4 injection on latent mastitis.
In the test, the Pulsatilla Saponin B4 injection prepared by the preparation method of Example 3 was used to treat 6 cows with persistent clinical mastitis and 2 cows with persistent clinical mastitis and close to dry. No matter how many udder areas were inflamed, intramuscular injection (60 mL) was taken once a day.

On the set-up of series [2]: species or system dairy cows. The note with it: in vivo. The text has this: In addition, during the treatment of dairy cow mastitis, randomly selected the tested Pulsatilla Saponin B4 injection and entrusted the Sichuan Provincial Veterinary Drug Inspection Institute to conduct more than 200 antibiotic tests, and no antibiotic component was detected. […] Pulsatilla Saponin B4 has little effect on the immunoglobulin and inflammatory factors in the cow milk, thus can ensure the stability of the milk composition. In addition, since there is no residue, it will not affect the quality of fresh milk in dairy farms.

Take `C=C(C)C1CC[C@]2(C(=O)O[C@@H]3O[C@H](CO[C@@H]4O[C@H](CO)[C@@H](O[C@@H]5O[C@@H](C)[C@H](O)[C@@H](O)[C@H]5O)[C@H](O)[C@H]4O)[C@@H](O)[C@H](O)C3O)CC[C@]3(C)[C@H](CC[C@@H]4[C@@]5(C)CC[C@H](O[C@@H]6OC[C@H](O)[C@H](O)[C@H]6O[C@@H]6O[C@@H](C)[C@H](O)[C@@H](O)[C@H]6O)C(C)(CO)[C@@H]5CC[C@]43C)[C@H]12` (stereo partly drawn) [Pulsatilla Saponin B4]: the “Treatment result of cows with persistent clinical mastitis close to dry” value in series [1] (2 cows close to dry) was “not effective”. For the same compound, the “Treatment result of cows with persistent clinical mastitis” value in series [1] (6 cows treated about a month but not cured) was “four cows were cured, one cow improved significantly, and one cow showed no significant effect”. Besides, the “Effect on the immunoglobulin and inflammatory factors in the cow milk” value in series [2] is recorded as “little effect”.
